Assay results: patent US6503899B2, “Azepino[4,5-b]pyrano[3,2-e]indoles” (Pharmacia & Upjohn Company, priority 2000, dated 2003)

Structure (SMILES)	melting point
CC1(C)CCc2c(ccc3[nH]c4c(c23)CCNCC4)O1.Cl	> 258 °C (dec.)
Cl.Cn1c2c(c3c4c(ccc31)OCCC4)CCNCC2	> 217 °C (dec.)
